For the test, the system named is mouse derived immortalized melanocyte cells (M3). Description: Suppression of melanogenesis in vitro (melanin extracted, optical density at 405 nm; visual count of melanized cells). It counts as cell-based. Conditions: Treatment Dose 0.100%; M3 melanocytes, treated days 1, 3, 5; melanin extracted day 6, OD 405 nm.

For `O=C1O[C@H]([C@@H](O)CO)C(O)=C1O` [Ascorbic Acid], the “% Control Melanin” value is given as 51%.

The values above are taken from patent US7247321B2, “Skin whitening compositions containing asparagus extract” (Access Business Group International LLC, priority 2003, dated 2007).
